In patent US9273364B2 (Kyoto University, priority 2010, dated 2016):
Counter-ions that a name gives are not always drawn.

tested on: alternative splicing of a specific gene (GFP/RFP reporter); experiment: Compound screen with GFP/RFP alternative splicing reporter; format: cell-based; settings: not given
Description: Strategy of a method for testing whether or not a compound to be tested affects an alternative splicing of a specific gene in a mammalian multicelluar organism is shown in FIG. 14.
The reporter proteins used for the method are GFP and FRP.

| SMILES | Number of cells | ratio in column 11 (head not shown in this continuation table; table sorted by it in descending order; apparently GFP/RFP reporter ratio) | GFP/RFP (Ctrl = 1) |
| --- | --- | --- | --- |
| Cc1cn([C@H]2C[C@H](N=[N+]=[N-])[C@@H](CO)O2)c(=O)[nH]c1=O (racemic) [3′-azido-3′-deoxythymidine] | 2356 | – | – |
| C=C1/C(=C\C=C2/CCC[C@]3(C)[C@@H]([C@H](C)CCCC(C)C)CC[C@@H]23)C[C@@H](O)C[C@@H]1O (racemic) [Alfacalcidol] | 861 | – | – |
| CC(C)CN(C[C@@H](O)[C@H](Cc1ccccc1)NC(=O)O[C@H]1CCOC1)S(=O)(=O)c1ccc(N)cc1 (racemic) [Amprenavir] | 2564 | – | – |
| C[C@@H](O[C@H]1OCCN(Cc2n[nH]c(=O)[nH]2)[C@H]1c1ccc(F)cc1)c1cc(C(F)(F)F)cc(C(F)(F)F)c1 (racemic) [Aprepitant] | 2165 | – | – |
| Cc1ccc(-c2cc(C(F)(F)F)nn2-c2ccc(S(N)(=O)=O)cc2)cc1 (racemic) [Celecoxib] | 3060 | – | – |
| CN(C)CCC(c1ccc(Cl)cc1)c1ccccn1 (racemic) [Chlorpheniramine maleate] | 3724 | – | – |
| C[C@]12CCC(=O)C=C1CC[C@@H]1[C@@H]2[C@@H](O)C[C@@]2(C)[C@H]1CC[C@]2(O)C(=O)CO (racemic) [Hydrocortisone] | 3105 | – | – |
| CC(C)NCC(O)c1ccc(O)c(O)c1.Cl (racemic) [Isoproterenol HCl (rac)] | 3953 | – | – |
| O=NN(CCCl)C(=O)NC1CCCCC1 (racemic) [Lomustine] | 1241 | – | – |
| CCc1nn(CCCN2CCN(c3cccc(Cl)c3)CC2)c(=O)n1CCOc1ccccc1 (racemic) [Nefazodone] | 2966 | – | – |
| C#C[C@]1(O)CC[C@H]2[C@@H]3CCC4=CC(=O)CC[C@@H]4[C@H]3CC[C@@]21C (racemic) [Norethindrone] | 3205 | – | – |
| CCOC(=O)[C@H](CCc1ccccc1)N[C@@H](C)C(=O)N1Cc2ccccc2C[C@H]1C(=O)O (racemic) [Quinapril HCl] | 3149 | – | – |
| NC(=O)c1ncn([C@@H]2O[C@H](CO)[C@@H](O)[C@H]2O)n1 (racemic) [Ribavirin] | 3140 | – | – |
| CCCc1nc2c(C)cc(-c3nc4ccccc4n3C)cc2n1Cc1ccc(-c2ccccc2C(=O)O)cc1 (racemic) [Telmisartan] | 3042 | – | – |
| Cc1c(Cl)cccc1Nc1ccccc1C(=O)O (racemic) [Tolfenamic acid] | 2697 | – | – |
| NC1CCN(c2nc3c(cc2F)c(=O)c(C(=O)O)cn3-c2ccc(F)cc2F)C1 (racemic) [Tosufloxacin] | 2590 | – | – |
| N[C@@H]1C[C@H]1c1ccccc1 (racemic) [Tranylcypromine] | – | 0.7492 | – |
| CC[C@@]1(O)C(=O)OCc2c1cc1n(c2=O)Cc2cc3cc(O)ccc3nc2-1 [10-hydroxycamptothecin] | – | – | 3.114 |

same assay, conditions: 50 ng/mL

| SMILES | Number of cells |
| --- | --- |
| CCCCC(C)(O)C/C=C/[C@H]1[C@H](O)CC(=O)[C@@H]1CCCCCCC(=O)OC (mixture of isomers) [Misoprostol] | 3052 |
| O=c1[nH]cc(F)c(=O)[nH]1 (racemic) [5-fluorouracil] | 433 |
| COc1ccc(CC2c3cc(OC)c(OC)cc3CC[N+]2(C)CCC(=O)OCCCCCOC(=O)CC[N+]2(C)CCc3cc(OC)c(OC)cc3C2Cc2ccc(OC)c(OC)c2)cc1OC (racemic) [Atracurium besylate] | 3056 |
| c1ccc(-c2ccc(C(c3ccccc3)n3ccnc3)cc2)cc1 (racemic) [Bifonazole] | 921 |
| CC(C)C[C@H](NC(=O)[C@H](Cc1ccccc1)NC(=O)c1cnccn1)B(O)O (racemic) [Bortezomib] | 74 |
| Nc1nc(Cl)nc2c1ncn2[C@@H]1O[C@H](CO)[C@@H](O)[C@@H]1F (racemic) [Clofarabine] | 19 |
| CCN(CC)CCOc1ccc(C(=C(Cl)c2ccccc2)c2ccccc2)cc1 (racemic) [Clomiphene citrate] | 95 |
| N=c1ccn2c(n1)O[C@H]1[C@H](O)[C@@H](CO)O[C@H]12 (racemic) [Cyclocytidine HCl] | 73 |
| Nc1ccn([C@@H]2O[C@H](CO)[C@@H](O)[C@@H]2O)c(=O)n1 (racemic) [Cytarabine] | 48 |
| CC/C(=C(/CC)c1ccc(O)cc1)c1ccc(O)cc1 (racemic) [Diethylstilbestrol] | 542 |
| CCN(CC)C(=S)SSC(=S)N(CC)CC (racemic) [Disulfiram] | 31 |
| COC(=O)Nc1nc2ccc(Sc3ccccc3)cc2[nH]1 (racemic) [Fenbendazole] | 278 |
| O=c1[nH]c(=O)n([C@H]2C[C@H](O)[C@@H](CO)O2)cc1F (racemic) [Floxuridine] | 142 |
| Nc1ccn([C@@H]2O[C@H](CO)[C@@H](O)C2(F)F)c(=O)n1 (racemic) [Gemcitabine HCl] | 156 |
| CC(C)C(=O)c1c(C(C)C)nn2ccccc12 (racemic) [Ibudilast] | 3018 |
| CC(=O)[C@]1(O)Cc2c(O)c3c(c(O)c2[C@@H](O[C@H]2C[C@H](N)[C@H](O)[C@H](C)O2)C1)C(=O)c1ccccc1C3=O (racemic) [Idarubicin] | 34 |
| O=c1[nH]c(=O)n([C@H]2C[C@H](O)[C@@H](CO)O2)cc1I (racemic) [Idoxuridine] | 1924 |
| CC(C)Cn1cnc2c(N)nc3ccccc3c21 (racemic) [Imiquimod] | 1944 |
| CCC(C)n1ncn(-c2ccc(N3CCN(c4ccc(OCC5COC(Cn6cncn6)(c6ccc(Cl)cc6Cl)O5)cc4)CC3)cc2)c1=O (racemic) [Itraconazole] | 344 |

| SMILES | Number of cells |
| --- | --- |
| Cc1oncc1C(=O)Nc1ccc(C(F)(F)F)cc1 (racemic) [Leflunomide] | 1963 |
| C[C@H]1C[C@@H]2[C@H]([C@@H](O)C[C@@]3(C)[C@H]2CC[C@]3(O)C(=O)CO)[C@@]2(C)C=CC(=O)C=C12 (racemic) [Methylprednisolone] | 3084 |
| Clc1ccc(COC(Cn2ccnc2)c2ccc(Cl)cc2Cl)c(Cl)c1 (racemic) [Miconazole] | 808 |
| Clc1ccc(CO/N=C(\Cn2ccnc2)c2ccc(Cl)cc2Cl)c(Cl)c1 (racemic) [Oxiconazole nitrate] | 2732 |
| CC(C(=O)O)c1ccc2c(c1)Cc1cccnc1O2 (racemic) [Pranoprofen] | 3050 |
| C[C@]12C=CC(=O)C=C1CC[C@@H]1[C@@H]2[C@@H](O)C[C@@]2(C)[C@H]1CC[C@]2(O)C(=O)CO (racemic) [Prednisolone] | 2900 |
| CN1CCCN=C1/C=C/c1cccs1 (racemic) [Pyrantel pamoate] | 2985 |
| O=C(NC(Cc1cc(=O)[nH]c2ccccc12)C(=O)O)c1ccc(Cl)cc1 (racemic) [Rebamipide] | 2922 |
| Clc1ccc(C(Cn2ccnc2)OCc2csc3c(Cl)cccc23)c(Cl)c1 (racemic) [Sertaconazole] | 1863 |
| COc1cc(NS(=O)(=O)c2ccc(N)cc2)nc(OC)n1 (racemic) [Sulfadimethoxine] | 3092 |
| COc1ncnc(NS(=O)(=O)c2ccc(N)cc2)c1OC (racemic) [Sulfadoxine] | 2876 |
| CN1C(C(=O)Nc2ccccn2)=C(O)c2sccc2S1(=O)=O (racemic) [Tenoxicam] | 2916 |
| COc1cc2nc(N3CCN(C(=O)C4CCCO4)CC3)nc(N)c2cc1OC (racemic) [Terazosin HCl] | 3112 |
| Clc1ccc(C(Cn2ccnc2)OCc2ccsc2Cl)c(Cl)c1 (racemic) [Tioconazole] | 850 |
| CC[C@@]1(O)C(=O)OCc2c1cc1n(c2=O)Cc2cc3c(CN(C)C)c(O)ccc3nc2-1 (racemic) [Topotecan] | 259 |
| CN(C)CCOc1ccc(/C(=C(/CCCl)c2ccccc2)c2ccccc2)cc1 (racemic) [Toremifene] | 250 |
| CC(C)(C)NCC(O)c1ccccc1Cl (racemic) [Tulobuterol] | 3489 |
| Nc1ncnc2c1ncn2[C@@H]1O[C@H](CO)[C@@H](O)[C@@H]1O (racemic) [Vidarabine] | 1482 |

same assay, conditions: cell count after compound at final conc.; Ctrl number of cells 4303-5627

| SMILES | Number of cells |
| --- | --- |
| COC(=O)N/N=C/c1c[n+]([O-])c2ccccc2[n+]1[O-] (racemic) [Carbadox] | 2293 |
| O=C(O)CCCc1ccc(N(CCCl)CCCl)cc1 (racemic) [Chlorambucil] | 841 |
| Cc1nc(C)c(Cl)c(O)c1Cl (racemic) [Clopidol] | 3230 |
| C[C@]12CC[C@@H]3c4ccc(O)cc4C[C@@H](CCCCCCCCC[S+]([O-])CCCC(F)(F)C(F)(F)F)[C@H]3[C@@H]1CC[C@@H]2O (mixture of isomers) [Fulvestrant] | 2156 |
| N[C@@H](Cc1ccc(N(CCCl)CCCl)cc1)C(=O)O (racemic) [Melphalan] | 483 |
| COc1c(C)c2c(c(O)c1C/C=C(\C)CCC(=O)OCCN1CCOCC1)C(=O)OC2 (racemic) [Mycophenolate mofetil] | 500 |
| COC(=O)Nc1nc2ccc([S+]([O-])c3ccccc3)cc2[nH]1 (racemic) [Oxfendazole] | 1712 |
| CCCOc1ccc2nc(NC(=O)OC)[nH]c2c1 (racemic) [Oxibendazole] | 786 |
| COc1ccnc(C[S+]([O-])c2nc3ccc(OC(F)F)cc3[nH]2)c1OC (racemic) [Pantoprazole] | 3112 |
| CC(N)C(O)c1ccccc1 (racemic) [Phenylpropanolamine] | 2551 |
| CCC[S+]([O-])c1ccc2[nH]c(NC(=O)OC)nc2c1 (racemic) [Ricobendazole] | 1381 |
| C[N+](C)(C)CCOC(=O)CCC(=O)OCC[N+](C)(C)C (racemic) [Succinylcholine] | 2727 |
| CC[C@@]1(O)C(=O)OCc2c1cc1n(c2=O)Cc2cc3cc(O)ccc3nc2-1 [10-hydroxycamptothecin] | 541 |
| CC[C@@]1(O)C[C@H](O[C@H]2C[C@H](N(C)C)[C@H](O[C@H]3C[C@H](O)[C@H](O[C@H]4CCC(=O)[C@H](C)O4)[C@H](C)O3)[C@H](C)O2)c2c(cc3c(c2O)C(=O)c2c(O)cccc2C3=O)[C@H]1C(=O)OC [Aclarubicin] | 10 |

same assay, conditions: reporter ratio relative to control = 1; final conc. per compound (μM, 50 ng/mL)

| SMILES | GFP/RFP (Ctrl = 1) |
| --- | --- |
| CC(C)NCC(O)c1ccc(O)c(O)c1.Cl (racemic) [Isoproterenol HCl (rac)] | 1.614 |
